The test system of one test is PTEN. The test can be described thus: Western blotting of nuclear fractions from cultured neurons: PTEN nuclear translocation. In kind it is cell-based, rat. The note with it: NMDA stimulation. The protocol:
Dissociated cultures of rat cortical or hippocampal neurons were prepared from 18-d-old Sprague Dawley rat embryos as described previously (Mielke and Wang 2005). To obtain mixed cultures enriched with neurons, uridine (10 μM) and 5-Fluor-T-deoxyuridine (10 μM) were added to the culture medium at 3 d in vitro (DIV) and maintained for 48 h to inhibit non-neuronal cell proliferation before the cultures were returned to the normal culture medium. Mature neurons (12-14 DIV) were used for experiments.
In order to induce excitotoxicity, 12-14 DIV cultured neurons were washed and transferred to Mg2+-free extracellular solution (ECS) containing the following (in mM): 25 HEPES acid, 140 NaCl, 33 glucose, 5.4 KCl, and 1.3 CaCl2, with pH 7.35 and osmolarity 320-330 mOsm. […]
For western blotting, 10 μg of the nuclear extract or 40 μg of total cell lysate (solubilized by 1% SDS, 1 mM EGTA, 1 mM EDTA, 1 mM DTT, 2 mM sodium orthovanadate, and protease inhibitors cocktail in PBS) from each treatment condition was separated with SDS-PAGE, transferred onto a polyvinylidene difluoride (PVDF) membrane, and probed with the relevant antibodies. […] Band intensities were quantified using NIH ImageJ™ software and normalized to the quantity of a nuclear marker or β-tubulin in each sample lane.
For orientation: A western blot detects proteins with antibodies after separation by electrophoresis.

A short description of test [1]: Body asymmetry (elevated body swing test) after cerebral ischemia. The format is in vivo, rat. The note with it: vs Peptide-K13R, Peptide-K289, saline. The protocol: Adult male Sprague-Dawley rats (weight 200 g) were used in this study. All surgical procedures were performed using sterile/aseptic techniques in accordance with Institutional guidelines. Rats were anesthetized with chloral hydrate (0.4 g/kg IP) and subjected to cerebral ischemia. Ligation of the right middle cerebral artery (MCA) and bilateral common carotids arteries (CCAs) was performed by methods described previously (Shyu et al. 2005). The CCAs were clamped with non-traumatic arterial clips. The right MCA was ligated with a 10-0 nylone suture. After 90 min of ischemia, the suture on the MCA and the arterial clips on the CCAs were removed to allow reperfusion. Core body temperature was monitored with a thermistor probe (Hewlett-Packard™ Model 21090A probe, Hewlett-Packard Company™, Andover, Mass.), and maintained at 37° C. with a heating pad during anesthesia. […]
Behavioral assessments were measured on day 28 after stroke. […] The baseline-test scores were recorded in order to normalize those taken after cerebral ischemia. The elevated body swing test (EBST) was used to assess body asymmetry after MCA ligation and evaluated quantitatively as previously described (Shyu et al. 2004). […] The frequency of initial head swing contra-lateral to the ischemic side was counted in twenty continuous tests and was normalized, as follows: % recovery=[1−(lateral swings in twenty tests−10)/10×100%. […]

For the substance “KEIVSRNKRRYQED-YGRKKRRQRRR (KEIVSRNKRRYQEDYGRKKRRQRRR; PTEN K13 interference peptide conjugated to TAT protein transduction domain) [Peptide-K13]”, the “PTEN nuclear translocation (western blotting of nuclear fractions)” value with PTEN is given as “prevents PTEN nuclear translocation”. For the same substance, the “recovery in body swing tests” value in test [1] (given 2 hours after ischemia) and in test [1] (given 6 hours after ischemia) was “much more recovery” in each case.
